Read-outs that look alike come from different tables or passages of the source.
How the values were obtained:
[1] = test system: scopolamine-induced swimming hyperactivity; assay: scopolamine induced swimming test (SIS), reversal of scopolamine-induced swimming hyperactivity; assay type: in vivo, laboratory rats (b65); mice (b66); details: for inhibition in vivo at 0.32 mg/kg / inhibition in vivo at 3.2 mg/kg / inhibition in vivo at 32 mg/kg: Rattus norvegicus; for inhibition in vivo at 0.32 mg/kg: read-out: Percent Reversal Swimming Hyperactivity, Dose 0.32 mg/kg, SC; for inhibition in vivo at 3.2 mg/kg: read-out: Percent Reversal Swimming Hyperactivity, Dose 3.2 mg/kg, SC; for inhibition in vivo at 32 mg/kg: read-out: Percent Reversal Swimming Hyperactivity, Dose 32 mg/kg, SC; for reversal of scopolamine swimming hyperactivity: scopolamine-treated rats
Method: The biological activity of compounds of the present invention was evaluated using the "scopolamine induced swimming test" (SIS). This screen evaluated the ability of the test compounds to reverse the hyperactive swimming behavior of laboratory rats given scopolamine. in this test, untreated rats will generally swim between 20 to 30 meters during a five-minute test period. […] We have discovered unexpectedly that α2-adrenergic antagonists including the compounds in this application also reverse this swimming hyperactivity, perhaps through indirect stimulation of the cholinergic system.
SIS values are reported as the percent reversal of scopolamine, and are determined as follows: [formula] where U, SDT, and ST represent, respectively, the mean activity level in meters swum of untreated, scopolamine-and-drug-treated, and scopolamine-treated mice.

[2] = test system: α2-adrenergic binding site; assay: binding at the α2-adrenergic binding site; details: for α1/α2: ratio of IC50 α1/α2; for IC50: read-out: α2 IC50 (Nanomolar)
Method: The α2 binding sites are presynaptic and are involved in the control of release of norepinephrine. A compound which acts selectively as an α2-adrenergic antagonist acts to increase noradrenergic activity. Such increases in noradrenergic activity are related to improved cognitive function in animals.
(§1) The binding of representative compounds of this invention at the α1-adrenergic binding site was measured using the protocol described by Hornung, R., et al, Archiv. Pharm., 308:223 (1979). Similarly, the binding at the α2:adrenergic binding site was measured using the method of Rouot, B. R., et al, Life Sci., 25: 769 (1979). The data are presented in Table 2 and illustrate the α2 selectivity of the compounds.

[3] = molecular target: α1-adrenergic binding site; assay: binding at the α1-adrenergic binding site; details: read-out: α1 IC50 (Nanomolar)
Method: as §1

[4] = test system: spatial working memory in hippocamally-deficient mice; assay: Mouse Water Maze (MWM) test; assay type: in vivo, laboratory mice; details: read-out: minimal effective dose (MED)
Method: This compound was tested in the Mouse Water Maze (MWM) test which is a direct test of spatial cognitive skill in laboratory mice. This test, which is described in Morris, R., J. Neurosci. Meth., 11: 47-60 (1984), measures the effect of a test drug on spatial working memory in hippocamally-deficient mice.

[5] = 0.32 mg/kg, SC, vs scopolamine 0.1 mg/kg, five-minute test
[6] = 3.2 mg/kg, SC, vs scopolamine 0.1 mg/kg, five-minute test
[7] = 32 mg/kg, SC, vs scopolamine 0.1 mg/kg, five-minute test

Row | Compound | inhibition in vivo at 0.32 mg/kg [1, 5] | inhibition in vivo at 3.2 mg/kg [1, 6] | inhibition in vivo at 32 mg/kg [1, 7] | other results
1 | c1ccc(Nc2ccncc2)cc1 [Compound 1, N-Phenyl-4-pyridinamine] | 27% | 22% | 57% | –
2 | Cc1cccc(Nc2ccncc2)c1 [Compound 2, N-(3-Methylphenyl)-4-pyridinamine] | 52% | 36% | 66% | –
3 | Cc1ccc(Nc2ccncc2)cc1 [Compound 3, N-(4-Methylphenyl)-4-pyridinamine] | 10% | 25% | 100% | α1/α2 [2]: 43; IC50 [2]: 37 nM; IC50 [3]: 1600 nM
4 | Clc1cccc(Nc2ccncc2)c1 [Compound 4, N-(3-Chlorophenyl)-4-pyridinamine] | 0% | 27% | 75% | selectivity for binding at the α2-adrenergic site ([2]; from data in Table 2): high degree of selectivity for binding at the α2-adrenergic site; α1/α2 [2]: 56; IC50 [2]: 133 nM; IC50 [3]: 7500 nM; minimal effective dose [4]: 3.2 mg/kg
5 | FC(F)(F)c1cccc(Nc2ccncc2)c1 [Compound 5, N-[3-(Trifluoromethyl)phenyl]-4-pyridin-amine] | 0% | 0% | 57% | –
6 | FC(F)(F)c1ccc(Nc2ccncc2)cc1 [Compound 6, N-[4-(Trifluoromethyl)phenyl]-4-pyridin-amine] | 0% | 16% | 55% | –
7 | COc1cccc(Nc2ccncc2)c1 [Compound 7, N-(3-Methoxyphenyl)-4-pyridinamine] | 23% | 62% | 31% | –
8 | O=[N+]([O-])c1cccc(Nc2ccncc2)c1 [Compound 8, N-(3-Nitrophenyl)-4-pyridinamine] | 40% | 39% | 70% | –
9 | Nc1ccccc1Nc1ccncc1 [Compound 9, N-4-Pyridinyl-1,2-benzenediamine] | 15% | 18% | 72% | –
10 | Nc1cccc(Nc2ccncc2)c1 [Compound 10, N-4-Pyridinyl-1,3-benzenediamine] | 47% | 0% | 41% | –
11 | CN(C)c1cccc(Nc2ccncc2)c1 [Compound 11, N,N-Dimethyl-N'-4-pyridinyl-1,3-benzene-diamine] | 15% | 4% | 61% | –
12 | COC(=O)c1cccc(Nc2ccncc2)c1 [Compound 12, 3-(4-Pyridinylamino)benzoic acid, methyl ester] | 15% | 0% | 8% | –
13 | Clc1ccc(Nc2ccncc2)c(Cl)c1 [Compound 13, N-(2,4-Dichlorophenyl)-4-pyridinamine] | 0% | 24% | 0% | –
14 | Clc1ccc(Nc2ccncc2)cc1Cl [Compound 14, N-(3,4-Dichlorophenyl)-4-pyridinamine] | 31% | 37% | 64% | α1/α2 [2]: > 8.5; IC50 [2]: 118 nM; IC50 [3]: > 1000 nM
15 | O=[N+]([O-])c1cc(Nc2ccncc2)ccc1Cl [Compound 15, N-(4-Chloro-3-nitrophenyl)-4-pyridinamine] | 26% | 0% | 0% | –
16 | Cc1ccc(Nc2ccncc2)c([N+](=O)[O-])c1 [Compound 16, N-(4-Methyl-2-nitrophenyl)-4-pyridinamine] | 0% | 3% | 14% | –
17 | CC(=O)N(c1ccncc1)c1ccc(C)cc1 [Compound 17, N-(4-Methylphenyl)-N-4-pyridinylacetamide] | 35% | 56% | 21% | α1/α2 [2]: > 1.9; IC50 [2]: 5400 nM; IC50 [3]: > 10000 nM
18 | CC(=O)N(c1ccncc1)c1ccc(Cl)c(Cl)c1 [Compound 18, N-(3,4-Dichlorophenyl)-N-4-pyridinylacet-amide] | 33% | 34% | 30% | –
19 | COC(=O)N(c1ccncc1)c1ccc(C)cc1 [Compound 19, (4-Methylphenyl)-4-pyridinylcarbamic acid, methyl ester] | – | – | – | inhibition in vivo at 0.32 mg/kg ([1]; sc): 36%; inhibition in vivo at 3.2 mg/kg ([1]; sc): 20%; inhibition in vivo at 32 mg/kg ([1]; sc): 17%
20 | COC(=O)N(c1ccncc1)c1ccc(Cl)c(Cl)c1 [Compound 20, (3,4-Dichlorophenyl)-4-pyridinylcarbamic acid, methyl ester] | – | – | – | inhibition in vivo at 0.32 mg/kg ([1]; sc): 6%; inhibition in vivo at 3.2 mg/kg ([1]; sc): 0%; inhibition in vivo at 32 mg/kg ([1]; sc): 9%
21 | COC(=O)C1=CCCN(C)C1 [arecoline, reference compound] | – | – | – | reversal of scopolamine swimming hyperactivity [1]: can be reversed
22 | CN(C)C(=O)Oc1cccc([N+](C)(C)C)c1 [neostigmine, reference compound] | – | – | – | reversal of scopolamine swimming hyperactivity [1]: does not reverse the effect of scopolamine
23 | CNC(=O)Oc1ccc2c(c1)[C@]1(C)CCN(C)[C@@H]1N2C [physostigmine, reference compound] | – | – | – | reversal of scopolamine swimming hyperactivity [1]: can be reversed
24 | C[N+]1(C)C2CC(OC(=O)C(CO)c3ccccc3)CC1C1OC12 (stereo not shown) [scopolamine methyl nitrate, reference compound] | – | – | – | behavioral changes ([1]; same conditions as scopolamine): does not produce any behavioral changes
25 | CN1[C@@H]2C[C@@H](OC(=O)[C@H](CO)c3ccccc3)C[C@H]1[C@@H]1O[C@@H]12 [scopolamine, reference compound] | – | – | – | increase of swimming distances above baseline values ([1]; scopolamine 0.1 mg/kg, five-minute test period, rats): 75-125%
